Common to all, as to assay: Herbicidal action (Example 25)
Holding throughout (format): in vivo

For assay [1], the system named is Matricaria chamomilla. To be noted: preemergence, 2.0 kg/ha. An outline of the steps:
(§1)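 Herbicidal effect was judged by eye 2 to 6 weeks after pre- or postemergence spraying, scoring 0 for no damage through 100 for total kill. Cups were held in a greenhouse at 12°-25° C. or 18°-35° C. with thorough sprinkler irrigation.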

Assay [2] deals with Panicum virgatum. To be noted: preemergence, 2.0 kg/ha. An outline of the steps:
as §1

The subject of assay [3] is Poa annua. To be noted: Poa annua, pre-emergence, read-out: percentage damage. The method in brief:
as §1

Assay [4] has as its system Setaria faberii. To be noted: preemergence. The method in brief: as §1
Assay [5] has as its system Sinapis alba. To be noted: pre-emergence, read-out: percentage damage. An outline of the steps:
as §1

The subject of assay [6] is Sorghum halepense. To be noted: preemergence. An outline of the steps: as §1
In assay [7] the test system is Stellaria media. The settings on record: preemergence, 2.0 kg/ha. The method in brief:
as §1

Read-outs that look alike come from different tables or passages of the source.

`c1ccc(N2N=NC3C4CC(C5N=NC45)C32)cc1` (stereo not shown) [drawing 415]: the percentage damage in assay [1] is given as 95 percentage damage; in assay [2], 100 percentage damage; in assay [4] (2.0 kg/ha), 97 percentage damage; in assay [4] (4.0 kg/ha), 100 percentage damage; in assay [6] (2.0 kg/ha), 75 percentage damage; in assay [6] (4.0 kg/ha), 100 percentage damage. Also, the percentage damage in assay [7] is 100 percentage damage. For the same compound, the pest or weed control at 2000 g/ha in assay [3] (preemergence, 2.0 kg/ha) worked out at 95%; in assay [5] (preemergence, 2.0 kg/ha), 99%. For the same compound, in assay [5] (preemergence, 4.0 kg/ha), the pest or weed control at 4000 g/ha was determined as 100%.

On to `c1ccc(N2C3C4CC(C5N=NC45)C32)cc1` (stereo not shown) [drawing 416], for which the percentage damage in assay [1] was found to be 95 percentage damage; in assay [2], 100 percentage damage; in assay [4] (2.0 kg/ha), 59 percentage damage; in assay [4] (4.0 kg/ha), 65 percentage damage; in assay [6] (2.0 kg/ha), 74 percentage damage; in assay [6] (4.0 kg/ha) it was 78 percentage damage. In addition, the percentage damage in assay [7] turned out to be 100 percentage damage. Further, the pest or weed control at 2000 g/ha in assay [3] was determined as 57%; in assay [5], 74%.

These data come from patent US4257941A, “Polycyclic nitrogen-containing compounds” (BASF Aktiengesellschaft, priority 1976, dated 1981).
